Measured values: patent publication US20220331414A1, “LIPID COMPOUNDS AND LIPID NANOPARTICLE COMPOSITIONS” (Suzhou Abogen Biosciences Co., Ltd., priority 2020, published 2022)

Legend:
[1] = Apparent pKa of LNP formulations by TNS fluorescence assay; settings: LNP cationic lipid/DSPC/cholesterol/DMG-PEG 50/10/38.5/1.5 mol %, pH 3 to 9
Protocol: TNS was prepared as a 300 uM stock solution in distilled water. LNP formulations were diluted to 0.1 mg/ml total lipid in 3 mL of buffered solutions containing 50 mM sodium citrate, 50 mM sodium phosphate, 50 mM sodium borate, and 30 mM sodium chloride where the pH ranged from 3 to 9. An aliquot of the TNS solution was added to give a final concentration of 0.1 mg/ml and following vortex mixing fluorescence intensity was measured at room temperature in a Molecular Devices Spectramax iD3 spectrometer using excitation and mission wavelengths of 325 nm and 435 nm. A sigmoidal best fit analysis was applied to the fluorescence data and the pKa value was measured as the pH giving rise to half—maximal fluorescent intensity.

[2] = Lipid nanoparticle size and polydispersity by dynamic light scattering; format: physicochemical; settings: LNP of cationic lipid/DSPC/cholesterol/PEG-lipid 50:10:38.5:1.5 with mRNA
Protocol: (§1) Briefly, a cationic lipid provided herein, DSPC, cholesterol, and PEG-lipid were solubilized in ethanol at a molar ratio of 50:10:38.5:1.5, and mRNA were diluted in 10 to 50 mM citrate buffer, pH=4. The LNPs were prepared at a total lipid to mRNA weight ratio of approximately 10:1 to 30:1 by mixing the ethanolic lipid solution with the aqueous mRNA solution at a volume ratio of 1:3 using a microfluidic apparatus, total flow rate ranging from 9-30 mL/min. Ethanol were thereby removed and replaced by DPBS using dialysis. Finally, the lipid nanoparticles were filtered through a 0.2 μm sterile filter.
(§2) Lipid nanoparticle size were determined by dynamic light scattering using a Malvern Zetasizer Nano ZS (Malvern UK) using a 173° backscatter detection mode. The encapsulation efficiency of lipid nanoparticles were determined using a Quant-it Ribogreen RNA quantification assay kit (Thermo Fisher Scientific, UK) according to the manufacturer's instructions.

[3] = Encapsulation efficiency of lipid nanoparticles (Quant-it Ribogreen RNA assay); format: physicochemical; settings: LNP of cationic lipid/DSPC/cholesterol/PEG-lipid 50:10:38.5:1.5 with mRNA
Protocol: as §1, §2

Apparant Pka [1]	polydispersity [2]	size (nm) [2] [nm]	Encapsulation Efficiency [3] [%]	Compound
9.07	0.181	116.8	98.5	CCCCCCCCCOC(=O)CCCCCOP(=O)(NCCCCN(C)C)OCCCCCC(=O)OCCCCCCCCC [Compound 2]
7.26	0.194	94.66	88.8	CCCCCCCCCOC(=O)CCCCCOP(=O)(NCCN(C)C)OCCCCCC(=O)OCCCCCCCCC [Compound 5]
7.33	0.262	111.7	88.3	CCCCCCCCCOC(=O)CCCCCOP(=O)(NCCCN(C)C)OCCCCCC(=O)OCCCCCCCCC [Compound 6]
7.20	0.1	73.54	96.3	CCCCCCCCC(CCCCCC)COP(=O)(NCCCN(C)C)OCC(CCCCCC)CCCCCCCC (stereo not shown) [Compound 7]
8.10	0.187	56.41	93.2	CCCCCCCCCOP(=O)(OCCCCCCCCC)OCCCN(C)C [Compound 8]
6.94	0.116	138.3	96.2	CCCCCCCCCCCCCOP(=O)(NCCCN(C)C)OCCCCCCCCCCCCC [Compound 10]
8.53	0.092	107.7	81.3	CCCCCCCCCCCCCCOP(=O)(NCCCN(C)C)OCCCCCCCCCCCCCC [Compound 11]
6.13	0.137	164.9	94.0	CCCCCCCCCCCCCOP(=O)(NCCCN1CCCC1)OCCCCCCCCCCCCC [Compound 12]
7.79	0.034	130.5	96.5	CCCCCCCCCCCCCOP(=O)(NCCN1CCCCC1)OCCCCCCCCCCCCC [Compound 13]
5.64	0.037	138.5	88.8	CCCCCCCCC(CCCCCC)COP(=O)(NCCN(CCO)CCCC)OCC(CCCCCC)CCCCCCCC (stereo not shown) [Compound 14]
5.90	0.059	104.3	73.6	CCCCCCCCCCCCCOP(=O)(NCCN1CCOCC1)OCCCCCCCCCCCCC [Compound 15]
7.75	0.113	305.4	79.9	CCCCCCCCCCCCCOP(=O)(NC1CCN(C2CCOCC2)CC1)OCCCCCCCCCCCCC [Compound 16]
5.42	0.073	119.8	61.6	CCCCCCCCCCCCCOP(=O)(NCCN1CCN(C(C)=O)CC1)OCCCCCCCCCCCCC [Compound 17]
4.79	0.105	80.66	70.2	CCCCCCCCC(CCCCCC)COP(=O)(NCCN(C)C)OCC(CCCCCC)CCCCCCCC (stereo not shown) [Compound 21]
7.37	0.101	79.13	98.7	CCCCCCCCC(CCCCCC)COP(=O)(NCCCCN(C)C)OCC(CCCCCC)CCCCCCCC (stereo not shown) [Compound 22]
7.43	0.234	57.36	100.4	CCCCCCCCC(CCCCCC)COP(=O)(NCCCN1CCC1)OCC(CCCCCC)CCCCCCCC (stereo not shown) [Compound 23]
6.63	0.131	81.53	98.0	CCCCCCCCC(CCCCCC)COP(=O)(NCCN1CCCC1)OCC(CCCCCC)CCCCCCCC (stereo not shown) [Compound 24]
5.49	0.057	109.7	52.3	CCCCCCCCC(CCCCCC)COP(=O)(NCCCN1CCCC1)OCC(CCCCCC)CCCCCCCC (stereo not shown) [Compound 25]
4.99	0.27	68.19	93.6	CCCCCCCCC(CCCCCC)COP(=O)(NCCN1CCCCC1)OCC(CCCCCC)CCCCCCCC (stereo not shown) [Compound 26]
5.18	0.135	83.11	75.7	CCCCCCCCC(CCCCCC)COP(=O)(NCCCN1CCCCC1)OCC(CCCCCC)CCCCCCCC (stereo not shown) [Compound 27]
–	0.1	54.46	102.3	CCCCCCCCC(CCCCCCCC)OC(=O)CCCCCCCOP(=O)(NCCN(C)C)OCCCCCCC (stereo not shown) [Compound 42]
–	0.12	63.18	102.8	CCCCCCCCC(CCCCCC)COC(=O)CCCCCOP(=O)(NCCCN(C)C)OCCCCCC(=O)OCC(CCCCCC)CCCCCCCC (stereo not shown) [Compound 45]
–	0.094	73.81	93.48	CCCCCCCCC(CCCCCC)COP(=O)(NCCN(C(C)C)C(C)C)OCC(CCCCCC)CCCCCCCC (stereo not shown) [Compound 48]
–	0.09	93.25	85.5	CCCCCCCCC(CCCCCC)COP(=O)(NCCN(CCC)CCC)OCC(CCCCCC)CCCCCCCC (stereo not shown) [Compound 50]
–	0.163	69.3	82.85	CCCCCCCCC(CCCCCC)COP(=O)(NCCN1CC2CCCC2C1)OCC(CCCCCC)CCCCCCCC (stereo not shown) [Compound 61]
4.924	–	–	81.0	CCCCCCCCCCC(CCCCCCCCCC)COP(=O)(NCCN(CC)CC)OCC(CCCCCCCCCC)CCCCCCCCCC [Compound 86]

Compound	Apparant Pka [1]	polydispersity [2]	size (nm) [2] [nm]	Encapsulation Efficiency [3] [%]
CCCCCCCCCOP(=O)(NCCCCN(C)C)OCCCCCCCCC [Compound 1]	7.65	0.074	54.18	90.3
CCCCCCCCCOP(=O)(NCCN(C)C)OCCCCCCCCC [Compound 3]	8.59	0.154	53.41	61.6
CCCCCCCCCOP(=O)(NCCCN(C)C)OCCCCCCCCC [Compound 4]	8.26	0.055	72.06	73.2
CCCCCCCCCCCCCOP(=O)(OCCCCCCCCCCCCC)N1CCC(N(C)C)CC1 [Compound 18]	6.16	0.074	159.2	94.3
CCCCCCCCCCCCCOP(=O)(OCCCCCCCCCCCCC)N1CCC(N2CCOCC2)CC1 [Compound 19]	6.38	0.086	110.8	73.7
CCCCCCCCCCCCCOP(=O)(OCCCCCCCCCCCCC)N1CC2(CCN(C)CC2)C1 [Compound 20]	5.81	0.068	92.15	94.2
